Earlier results in patent US8362260B2, “Crystalline forms of dexlansoprazole” (Dipharma Francis S.r.l., priority 2009, dated 2013).

Settings: in vivo

For `Cc1c(OCC(F)(F)F)ccnc1C[S@@+]([O-])c1nc2ccccc2[nH]1` [Dexlansoprazole in amorphous form, (R)-2-[[[3-methyl-4(2,2,2-trifluoroethoxy)-2-piridyl]methyl]sulphinyl]benzimidazole], the bioavailability is given as “greater bioavailability”.
